The source of these data is patent US11059809B2, “Substituted cyanopyrrolidines with activity as DUB inhibitors” (MISSION THERAPEUTICS LIMITED, priority 2017, dated 2021).

By IC50 is commonly meant the concentration that inhibits the measured activity by half. A lower IC50 goes with higher potency.

The assay deals with USP30 (Homo sapiens (Human), UniProt Q70CQ3). The experiment in a line: USP30 Biochemical IC50 Assay. The settings on record: fluorescence polarisation, TAMRA labelled peptide linked to ubiquitin as substrate. Here is the method:
Dilution plates were prepared at 21 times the final concentration (2100 μM for a final concentration of 100 μM) in 50% DMSO in a 96-well polypropylene V-bottom plate (Greiner #651201). A typical 8-point dilution series would be 100, 30, 10, 3, 1, 0.3, 0.1, 0.03 μM final. Reactions were performed in duplicate in black 384 well plates (small volume, Greiner 784076) in a final reaction volume of 21 μl. Either 1 μl of 50% DMSO or diluted compound was added to the plate. USP30 was diluted in reaction buffer (40 mM Tris, pH 7.5, 0.005% Tween 20, 0.5 mg/ml BSA, 5 mM beta-mercaptoethanol) to the equivalent of 0.05 μl/well and 10 μl of diluted USP30 was added to the compound. Enzyme and compound were incubated for 30 min at room temp. Reactions were initiated by the addition of 50 nM of TAMRA labelled peptide linked to ubiquitin via an iso-peptide bond as fluorescence polarisation substrate. Reactions were read immediately after addition of substrate and following a 2-hour incubation at room temperature. Readings were performed on a Pherastar Plus (BMG Labtech). λ Excitation 540 nm; λ Emission 590 nm.

USP30, sequence (Q70CQ3 whole entry): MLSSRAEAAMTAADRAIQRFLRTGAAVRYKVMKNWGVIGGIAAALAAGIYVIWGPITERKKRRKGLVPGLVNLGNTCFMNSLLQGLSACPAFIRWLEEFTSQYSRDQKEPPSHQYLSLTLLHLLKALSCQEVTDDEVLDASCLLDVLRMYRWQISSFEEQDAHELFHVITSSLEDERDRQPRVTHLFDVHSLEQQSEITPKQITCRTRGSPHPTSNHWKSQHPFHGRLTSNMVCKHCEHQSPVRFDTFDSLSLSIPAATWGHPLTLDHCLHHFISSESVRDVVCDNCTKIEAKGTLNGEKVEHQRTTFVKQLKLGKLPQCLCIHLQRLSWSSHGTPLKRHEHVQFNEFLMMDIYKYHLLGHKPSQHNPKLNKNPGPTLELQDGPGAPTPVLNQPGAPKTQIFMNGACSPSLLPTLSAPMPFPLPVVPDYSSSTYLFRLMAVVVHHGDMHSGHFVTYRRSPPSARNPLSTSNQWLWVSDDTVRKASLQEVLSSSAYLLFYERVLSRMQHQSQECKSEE

As for `CN(C[C@H]1CCN(C#N)C1)C(=O)c1ncn(-c2cccc(C#N)c2)n1` [Example 2, (S)-1-(3-cyanophenyl)-N-((1-cyanopyrrolidin-3-yl)methyl)-N-methyl-1H-1,2,4-triazole-3-carboxamide], the IC50 lay within 10 to 100 nM. Regarding `N#Cc1cccc(-n2cc(C(=O)NC[C@H]3CCN(C#N)C3)nn2)c1` [Example 5, (R)-1-(3-cyanophenyl)-N((1-cyanopyrrolidin-3-yl)methyl)-1H-1,2,3-triazole-4-carboxamide], the IC50 lay within 100 to 1000 nM. For the compound `C[C@@H]1[C@H](CNC(=O)c2ncn(-c3cccc(C#N)c3)n2)CCN1C#N` (mixture of isomers) [Example 4, N-(((2R,3R)-1-cyano-2-methylpyrrolidin-3-yl)methyl)-1-(3-cyanophenyl)-1H-1,2,4-triazole-3-carboxamide and N-(((2R,3S)-1-cyano-2-methylpyrrolidin-3-yl)methyl)-1-(3-cyanophenyl)-1H-1,2,4-triazole-3-carboxamide], the IC50 is 10 to 100 nM. The result for `N#CN1CC[C@H](CNC(=O)c2cnn(-c3cccc(Cl)c3)n2)C1` [Example 7, (R)-2-(3-chlorophenyl)-N-((1-cyanopyrrolidin-3-yl)methyl)-2H-1,2,3-triazole-4-carboxamide] reads less than 10 nM.
